Data as given in PMC3479139, “Diverse Small Molecule Inhibitors of Human Apurinic/Apyrimidinic Endonuclease APE1 Identified from a Screen of a Large Public Collection” (PLoS ONE, 2012).
Like-named read-outs stand apart in the source and are kept apart here.

How the values were obtained:
[1] = molecular target: T1, APE1 (Homo sapiens, UniProt P27695); assay: Gel-based radiotracer (32P) APE1 incision assay; type: biochemical; parameters: concentration or dose not given beside the values; conditions: percent incision shown; entries 1-112;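 note: APE1 incision reactions ran 5 min at 37 °C, with cleaved product and intact substrate resolved electrophoretically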
T1 construct: made in house

[2] = molecular target: T1, APE1; assay: Fluorogenic kinetic qHTS APE1 incision assay (primary screen and retest of cherrypicked samples); type: biochemical;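 note: purified APE1 cleaving a fluorophore/dark-quencher labelled 17-mer duplex DNA bearing a tetrahydrofuran AP site, fluorescence rise followed kinetically over the first 2 min, inhibition normalized to controls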
[3] = molecular target: T1, APE1; assay: Fluorescence polarization (FP) displacement assay of APE1 binding to AP-DNA probe;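 note: TAMRA 5′-labeled duplex DNA with THF abasic site (5 nM) and APE1 (20 nM), Mg2+-free buffer, 15 min at room temperature, inhibition seen as lowered polarization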
[4] = test system: HeLa cells; assay: AP site measurement in genomic DNA; type: cell-based, human; conditions: 275 µM MMS plus inhibitor; for AP site levels, combination treatment versus MMS-alone: 24 h, initial test (Figure 8)
Procedure: HeLa cells at 80% confluency (6×10^5 cells) were subjected to the following treatments in a 6-well plate for 24 hours at 37°C: 1) DMSO alone, 2) 275 µM MMS, 3) APE1 inhibitors dissolved in DMSO (5–20 µM final compound concentration), and 4) the inhibitors as in treatment 3 in combination with 275 µM MMS. Cells were then harvested and processed using a Qiagen Genomic DNA isolation kit (Germantown, MD). After DNA quantitation, AP sites were measured using the DNA Damage Quantification kit from Dojindo Molecular Technologies (Rockville, MD).
As stated above, the application of the genotoxic agent MMS results in an increase in the level of AP sites within the genome. An effective APE1-targeted inhibitor applied under the conditions of increased genotoxic stress is expected to interfere with the repair of AP sites, while ideally having no effect on the AP site levels when applied as a single agent. Thus, the net effect of treating cells with a combination of MMS and inhibitor would be an increase in the number of AP site lesions. To determine the effect on AP site accumulation caused by treatment with MMS in combination with an APE1 inhibitor, as compared to treatment with MMS or inhibitor alone, we measured AP site levels in the chromosomal DNA from HeLa cells using an aldehyde-reactive probe-based colorimetric assay. The concentrations of MMS and inhibitor (275 µM for MMS and between […] for the inhibitor, respectively) were selected to fall below the onset of cytotoxicity for each agent based on the analysis of the MMS potentiation data shown in Figure 5.

[5] = molecular target: T2, E. coli Endo IV (Escherichia coli, UniProt P0A6C1); assay: E. coli Endo IV profiling counterscreen; type: biochemical;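 note: selectivity counterscreen of candidate APE1 inhibitors against the bacterial endonuclease Endo IV, run in the same assay format as the primary APE1 high-throughput screen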
T2 construct: made in house
From the text: In order to screen out nonselective compounds, such as non-specific DNA binders and inhibitors of related enzymes, we used a miniaturized ThO DNA displacement assay and a counterscreen against the bacterial endonuclease E. coli Endo IV, respectively, following the previously published protocols [21].
To probe the selectivity of the candidate APE1 inhibitors, we tested them against E. coli EndoIV [36], employing the same assay as used in the HTS.

[6] = molecular target: double-stranded 17-mer DNA fragment; assay: ThO (Thiazole Orange) DNA displacement assay; type: binding; conditions: read-out: ThO-DNA binding IC50;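 note: miniaturized displacement of the intercalating dye from unlabeled duplex DNA, used to flag nonspecific DNA binders, chiefly intercalators, groove binders may be missed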
[7] = test system: HeLa cells; assay: MMS potentiation assay (CellTiter Glo viability); type: cell-based, human; parameters: key: N.A., no activity observed; P, positive; I, inconclusive; N.T., not tested; conditions: for MMS Assay: potentiation of the genotoxic effect of methylmethane sulfonate
Procedure: HeLa cells were plated at 6000 cells/well in DMEM culture medium containing 10% FBS into white solid bottom 384-well cell culture plates. The plates were incubated at 37°C overnight for cell attachment, followed by media replacement. The fresh medium contained serial dilutions of compounds of interest in the presence (0.4 mM final) or absence of MMS. The plates were incubated for 24 h at 37°C. Cell viability was determined by luminescence detection after an addition of 15 µL of CellTiter Glo reagent (Promega, Madison, WI). Percent viability was calculated for each concentration of compound tested in duplicate by relating the corresponding luminescence to that of a negative DMSO vehicle control. MMS potentiation trends were defined as follows: negative (-), if cell viability in the compound-plus-MMS treatment was the same as that of the DMSO-plus-MMS control (overlapping dose-response curves); inconclusive (I), if the shift in the cell viability dose-response upon MMS inclusion relative to compound-alone was less than 30%; and positive (P), if the difference between the compound-plus-MMS and compound-alone curves was at least 30%, and maintained within at least a two-fold compound concentration span.
To examine the biological prospects of the top compounds, we tested their ability to inhibit APE1 DNA repair activity by assessing enhancement of MMS toxicity in mammalian cells. MMS creates methylated-base damage to genomic DNA, which, when excised by an alkylpurine DNA glycosylase, results in a high number of cytotoxic AP sites. We compared the viability of HeLa cells exposed to a dilution series of inhibitor alone to a combination of a fixed MMS concentration with the same dilution series of inhibitor by using a standard CellTiter Glo luminescence assay. This technique measures the number of viable cells in culture based on quantitation of the ATP present, which signals the presence of metabolically active cells. The assay was further optimized for 384-well plates, allowing a high-throughput testing of multiple hits at multiple concentrations, a scope of investigation previously impossible due to the very low throughput of the traditionally applied colony formation assay.
From the 223 compounds found positive in the gel-based APE1 assays, exclusion of the most promiscuous hits, that is, those that were both DNA binders and EndoIV-inhibitory, yielded a set of 170 compounds (Figure 3). This shortened group of hits was tested in the cell-based potentiation assay for their ability to dose-dependently enhance sensitivity of HeLa cells to the alkylating agent MMS.

[8] = molecular target: T1, APE1; assay: Gel-based APE1 incision assay with fluorescence (TAMRA) detection; type: biochemical
[9] = initial quantitative high-throughput screen, read-out: APE1 qHTS IC50
[10] = retest of cherrypicked sample, read-out: APE1 Retest IC50
[11] = estimated IC50, fluorophore detection, entries 113-223, read-out: F-PAGE Assay IC50
[12] = entries 113-223: fluorophore detection, estimated IC50, read-out: Gel-based electrophoretic separation assay with fluorophore detection, estimated IC50 (column headed Radiotracer Assay (%Activity))

T1 sequence (P27695 whole entry): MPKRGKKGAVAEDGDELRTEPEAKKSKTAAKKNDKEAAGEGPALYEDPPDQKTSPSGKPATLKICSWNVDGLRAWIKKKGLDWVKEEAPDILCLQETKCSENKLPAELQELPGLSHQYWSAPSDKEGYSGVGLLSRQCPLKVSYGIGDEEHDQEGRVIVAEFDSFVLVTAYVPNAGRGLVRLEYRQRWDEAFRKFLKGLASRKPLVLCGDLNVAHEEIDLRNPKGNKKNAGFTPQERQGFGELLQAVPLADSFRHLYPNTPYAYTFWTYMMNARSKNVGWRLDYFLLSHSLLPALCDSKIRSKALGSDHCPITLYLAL

SMILES	Radiotracer Assay (%Activity) [1] [%]	IC50 ([2]; APE1 Retest IC50, retest of cherrypicked sample) [µM]	IC50 ([2]; APE1 qHTS IC50, initial quantitative high-throughput screen) [µM]	IC50 [3] [µM]	AP site levels, combination versus MMS-alone, repeat testing ([4]; repeat test (Figure S1))	AP site levels, combination treatment versus MMS-alone [4]	IC50 [5] [µM]	IC50 [6] [µM]	MMS Assay [7]	IC50 [2, 9] [µM]	IC50 [2, 10] [µM]	IC50 ([3]; read-out: FP IC50) [µM]	IC50 ([5]; read-out: EndoIV IC50) [µM]	IC50 [8, 11] [µM]	IC50 [8, 12] [µM]	MMS Assay: potentiation of the genotoxic effect of methylmethane sulfonate [7]
O=C1NC(=O)N(Cc2ccco2)C(=O)C1=CC=Cc1ccco1 [MLS000587064]	14	5	2.8	> 57	support the initially-observed enhancements	obscured by large standard deviations	> 57	> 57	P							
COc1cc2c(ccc3cc(OC)c(OC)c(O)c32)cc1O [MLS000863573]	4					no statistical significance	8.9	11.2	P	0.7	0.6	12.6				
CC(=O)Oc1cc(C(=O)OCC(=O)N2CCc3ccccc3C2)cc(OC(C)=O)c1OC(C)=O [MLS002252117]								> 57	I	5.3	11.5	> 57	> 57	4.5		
N#C/C(=C\c1ccc(O)c(O)c1)C(=O)Nc1cccc2ncccc12 [MLS001173932]								2	I	3	5.1	> 57	> 57	0.6		
Cc1cccn2c(=O)c3cc(C(=O)NCc4ccco4)c(=N)n(C4CCCCC4)c3nc12 [MLS001217741]								> 57		16.8	12.9	> 57	> 57		22.4	P
O=C1COc2ccc(C(=O)COC(=O)/C=C/c3ccc(Br)o3)cc2N1 [MLS001142042]								> 57	I	4.7	14.5	> 57	> 57	2.2		
CC1CCc2c(sc(NC(=O)/C=C/c3cccs3)c2C(=O)O)C1 (stereo not shown) [MLS000974674]								36.3	P	11.9	45.7	> 57	> 57	6.3		
CCc1cc(CNC(=O)c2ccc(OC3CCN(CCc4ccccc4)CC3)cc2)on1 [MLS001105846]								> 57	P	11.9	6.5	32.4	> 57	4.5		
O=C(O)C1Nc2ccc(Br)cc2C2C=CCC12 (stereo not shown) [MLS001209038]								25.7	I	13.4	18.2	> 57	> 57	6.3		
COc1ccc(CCn2c(O)cc3nn(-c4nc5ccccc5s4)c(=O)c-3c2C)cc1 [MLS000763226]	20							10	I	31.6	15.8	> 57	> 57			
COc1ccc(C(=O)Nc2ccnn2C2CCN(Cc3ccc4nonc4c3)CC2)cc1 [MLS001090278]								> 57		5.3	10.2	> 57	> 57		10	I
COc1ccc2c(c1)c(=O)oc1cc(OCC(=O)N3CCC(C)CC3)ccc12 [MLS000088142]	29							> 57	I	15.6	5	14.1	> 57			
O=C1CC(=O)N(Cc2ccco2)C(=S)N1 [MLS000535286]	28							> 57	I	11.2	12.6	> 57	> 57			
O=C(O)c1cccc(-n2cccc2/C=C/[N+](=O)[O-])c1 [MLS000778420]	46							> 57	P	3.9	4.5	> 57	> 57			
O=C(O[C@@H]1OC2COC(=O)c3cc(O)c(O)c(O)c3-c3c(cc(O)c(O)c3O)C(=O)O[C@@H]([C@H]1O)[C@@H]2O)c1cc(O)c(O)c(O)c1 [MLS000563483]	16							> 57	I	0.07	0.05	> 57	> 57			
COc1ccc(CN2C(=O)NC(=O)/C(=C\c3ccco3)C2=O)cc1 [MLS000723827]	18							> 57	I	22.4	14.1	> 57	> 57			
